Patent publication US20040038216A1, “Method for the structural determination of ligands bound to macromolecular targets by nuclear magnetic resonance” (priority 2002, published 2004)
Marks after values point to notes of the source that are not given here.

Tests used:
Bcl-xL [1] = biological target: Bcl-xL (Homo sapiens, UniProt Q07817); assay: NMR-based screening; format: binding; details: independently determined
Description: (§1) 500 uL of the ligand solution was transferred to each of 8 NMR tubes (Wilmad). The protein solutions were then added to the NMR tubes to a final protein concentration of 40 uM in the following manner: Sample 1: unlabeled Bcl-xL; Sample 2: U-^2H-Bcl-xL; Sample 3: U-^2H-{^1H-R}-Bcl-xL; Sample 4: U-^2H-{^1H-Y}-Bcl-xL; Sample 5: U-^2H-{^1H-L}-Bcl-xL; Sample 6: U-2H-{^1H-I}-Bcl-xL; Sample 7: U-^2H-{^1H-M}-Bcl-xL; Sample 8: No protein.

Bcl-xL [2] = biological target: T1, Bcl-xL (Homo sapiens, UniProt Q07817, DEL45-84); assay: STD-NMR (saturation transfer difference) spectra on Bcl-xL/ligand complexes; format: binding
T1 construct: deletion mutant of Bcl-xL (that lacks the putative carboxy-terminal transmembrane region and residues 49-88) was used; His tag (C); made in house; host or cells: E. coli BL21(DE3)
T1 sequence (Q07817 with tags, fused parts or gaps DEL45-84 limits assumed): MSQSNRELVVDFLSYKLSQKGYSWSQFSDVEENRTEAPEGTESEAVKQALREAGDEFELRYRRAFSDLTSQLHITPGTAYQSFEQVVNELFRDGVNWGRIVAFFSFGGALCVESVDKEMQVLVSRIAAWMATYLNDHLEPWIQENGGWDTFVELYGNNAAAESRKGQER
Description: A sample of unlabeled Bcl-xL as well as samples of perdeuterated Bcl-xL that were selectively protonated at the specific amino acids Arg, Tyr, Leu, Ile, and Met were prepared in accordance with the procedures of Example 1. Samples of 200 uM 4-(4-fluorophenyl)benzoic acid (3, Array), [drawing 1]
as §1
STD-NMR spectra (Mayer and Meyer, J. Am. Chem. Soc. 2001, 123, 6108-6117) were determined on each of the eight samples. All NMR experiments were performed at 300K on a Bruker Avance DRX500 system equipped with a CryoProbe. The pulse sequence for the ID STD-NMR spectra was identical to that used by Mayer and Meyer (2001) except that a CPMG T2-filter was used instead of a T1p-filter to remove background protein resonances. Subtraction of the on- and off-resonance spectra was performed internally and a WATERGATE sequence was used for suppression of the residual solvent signal. On-resonance irradiation of the protein was performed by using a train of Gauss-shaped pulses of 2.5 ms length separated by a 2.5 ms delay, and alternating on-resonance irradiation was applied at 0.8 and 3.0 ppm. Off-resonance irradiation was applied at −10.0 ppm. 280 shaped pulses were used in the pulse train, leading to a total saturation time of 1.4 s. All spectra were acquired with a 100 ms T2-filter, 1024 complex points, 1024 scans, a ^1H sweep width of 8333 Hz, and a total recycle time of 2.0 s.
All NMR spectra were processed and analyzed on Silicon Graphics computers using standard protocols well-known in the art. STD-NMR spectra for biaryl 3 in the presence of unlabeled Bcl-xL (Sample 1), U-^2H-Bcl-xL (Sample 2), and no protein are shown in FIG. 5. […] Therefore, the signal intensity for each resonance of the biaryl 3 in the presence of unlabeled and perdeuterated protein was taken as the maximum and minimum intensity, respectively, for the NOE in the presence of the selectively protonated samples. The intensity of the NOEs could then be calculated using the following equation, [formula]
where I(norm) is the normalized intensity in the STD-NMR spectrum for a given biaryl resonance, and I(SL), I(^2H), and I(^1H) are the intensities of the resonance in the presence of the selectively protonated, perdeuterated, and unlabeled protein, respectively. The normalized NOE intensities can be visualized by simple subtraction of the STD-NMR spectrum of the ligand in the presence of deuterated protein from each of the selectively protonated samples. In these spectra, it is clearly seen that an arginine residue is in close contact with the benzoic acid portion of 3 (magnetization transfer to HA and HB/C), but not the fluorophenyl portion. It is also clear that a tyrosine and leucine residue is in contact with the fluorophenyl portion of 3 (magnetization transfer to HD and HB/C), but not the benzoic acid portion. Spectra shown in (E) and (F) indicate that no portion of the biaryl is in contact with any isoleucine or methionine residues.
These NOE intensities were then converted into distance restraints for use in structural calculations in the following manner. For any given amino acid type and ligand resonance, normalized NOE intensities less than 5% were treated as having no interaction. Therefore, distances between that ligand atom and all protons on all amino acids of that specific type were set at greater than 5 Å. For NOE intensities greater than 15%, ambiguous distance restraints were assigned. […]

[3] = ligand proton HA, Sample 1 Unlabeled Bcl-xL
[4] = ligand proton HA, Sample 2 U-2H-Bcl-xL
[5] = ligand proton HD, Sample 1 Unlabeled Bcl-xL
[6] = ligand proton HD, Sample 2 U-2H-Bcl-xL
[7] = ligand protons HB/HC, Sample 1 Unlabeled Bcl-xL
[8] = ligand protons HB/HC, Sample 2 U-2H-Bcl-xL

Sequence of Bcl-xL (Homo sapiens, UniProt Q07817) (Q07817 whole entry): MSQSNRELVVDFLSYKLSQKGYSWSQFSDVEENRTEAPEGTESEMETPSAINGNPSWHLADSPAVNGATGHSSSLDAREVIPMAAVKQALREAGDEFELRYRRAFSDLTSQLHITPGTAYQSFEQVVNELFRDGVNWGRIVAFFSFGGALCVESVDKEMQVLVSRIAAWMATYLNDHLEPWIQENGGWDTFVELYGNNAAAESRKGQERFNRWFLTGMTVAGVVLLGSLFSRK

O=C(O)c1ccc(-c2ccc(F)cc2)cc1 [biaryl 3, 4-(4-fluorophenyl)benzoic acid]
binding to Bcl-xL (NMR-based screening) (Bcl-xL [1]): ligand for Bcl-xL
Normalized NOE intensity (Bcl-xL [2]; HA protons, in the presence of U-2H-{1H-Y}-Bcl-xL): 3%
Normalized NOE intensity (Bcl-xL [2]; HD protons, in the presence of U-2H-{1H-Y}-Bcl-xL): 22%
Distance restraint derived from the NOE intensity data (Bcl-xL [2]; ligand proton HA to arginine protons, Sample 3 U-2H-{1H-R}-Bcl-xL): <4^a Å
Distance restraint derived from the NOE intensity data (Bcl-xL [2]; ligand proton HA to isoleucine protons, Sample 6 U-2H-{1H-I}-Bcl-xL): >5 Å
Distance restraint derived from the NOE intensity data (Bcl-xL [2]; ligand proton HA to methionine protons, Sample 7 U-2H-{1H-M}-Bcl-xL): >5 Å
Distance restraint derived from the NOE intensity data (Bcl-xL [2]; ligand proton HA to tyrosine protons, Sample 4 U-2H-{1H-Y}-Bcl-xL): >5 Å
Actual NOE intensity (Bcl-xL [2]; [3]): (175)
Normalized NOE intensity (Bcl-xL [2]; [3]): 100^a
Actual NOE intensity (Bcl-xL [2]; [4]): (17)
Normalized NOE intensity (Bcl-xL [2]; [4]): 0
Actual NOE intensity (Bcl-xL [2]; ligand proton HA, Sample 3 U-2H-{1H-R}-Bcl-xL): (57)
Actual NOE intensity (Bcl-xL [2]; ligand proton HA, Sample 4 U-2H-{1H-Y}-Bcl-xL): (22)
Actual NOE intensity (Bcl-xL [2]; ligand proton HA, Sample 5 U-2H-{1H-L}-Bcl-xL): (28)
Actual NOE intensity (Bcl-xL [2]; ligand proton HA, Sample 6 U-2H-{1H-I}-Bcl-xL): (18)
Actual NOE intensity (Bcl-xL [2]; ligand proton HA, Sample 7 U-2H-{1H-M}-Bcl-xL): (23)
Distance restraint derived from the NOE intensity data (Bcl-xL [2]; ligand proton HD to leucine protons, Sample 5 U-2H-{1H-L}-Bcl-xL): <3 Å
Actual NOE intensity (Bcl-xL [2]; [5]): (167)
Normalized NOE intensity (Bcl-xL [2]; [5]): 100
Actual NOE intensity (Bcl-xL [2]; [6]): (28)
Normalized NOE intensity (Bcl-xL [2]; [6]): 0
Actual NOE intensity (Bcl-xL [2]; ligand proton HD, Sample 3 U-2H-{1H-R}-Bcl-xL): (40)
Actual NOE intensity (Bcl-xL [2]; ligand proton HD, Sample 4 U-2H-{1H-Y}-Bcl-xL): (59)
Actual NOE intensity (Bcl-xL [2]; ligand proton HD, Sample 5 U-2H-{1H-L}-Bcl-xL): (93)
Actual NOE intensity (Bcl-xL [2]; ligand proton HD, Sample 6 U-2H-{1H-I}-Bcl-xL): (40)
Actual NOE intensity (Bcl-xL [2]; ligand proton HD, Sample 7 U-2H-{1H-M}-Bcl-xL): (45)
Distance restraint derived from the NOE intensity data (Bcl-xL [2]; ligand protons HB/HC to arginine protons, Sample 3 U-2H-{1H-R}-Bcl-xL): <5 Å
Distance restraint derived from the NOE intensity data (Bcl-xL [2]; ligand protons HB/HC to isoleucine protons, Sample 6 U-2H-{1H-I}-Bcl-xL): >5 Å
Distance restraint derived from the NOE intensity data (Bcl-xL [2]; ligand protons HB/HC to leucine protons, Sample 5 U-2H-{1H-L}-Bcl-xL): <5 Å
Distance restraint derived from the NOE intensity data (Bcl-xL [2]; ligand protons HB/HC to methionine protons, Sample 7 U-2H-{1H-M}-Bcl-xL): >5 Å
Actual NOE intensity (Bcl-xL [2]; [7]): (200)
Normalized NOE intensity (Bcl-xL [2]; [7]): 100
Actual NOE intensity (Bcl-xL [2]; [8]): (32)
Normalized NOE intensity (Bcl-xL [2]; [8]): 0
Actual NOE intensity (Bcl-xL [2]; ligand protons HB/HC, Sample 3 U-2H-{1H-R}-Bcl-xL): (70)
Actual NOE intensity (Bcl-xL [2]; ligand protons HB/HC, Sample 4 U-2H-{1H-Y}-Bcl-xL): (49)
Actual NOE intensity (Bcl-xL [2]; ligand protons HB/HC, Sample 5 U-2H-{1H-L}-Bcl-xL): (71)
Actual NOE intensity (Bcl-xL [2]; ligand protons HB/HC, Sample 6 U-2H-{1H-I}-Bcl-xL): (30)
Actual NOE intensity (Bcl-xL [2]; ligand protons HB/HC, Sample 7 U-2H-{1H-M}-Bcl-xL): (30)
